Reference: patent US20230321067A1, “DOSING REGIMEN COMPRISING 3-(1-OXOISOINDOLIN-2-YL)PIPERIDINE-2,6-DIONE DERIVATIVES” (Novartis AG, priority 2020, published 2023)
Several values for one entry are separate records, joined by “and”; a condition that tells them apart may be missing. Equal values may be shown once. Entries after “also recorded” stand apart in the source; their conditions may differ.

Experiments:
[1] = In vivo non-clinical PK, rat
Description: (§1) The in vivo non-clinical PK profile of I-57 was investigated in mouse, rat, dog and cynomolgus monkey using I-57 free base. […] After p.o. administration, the absorption of I-57 was rapid with peak blood concentration (Tmax) occurring between 1 and 4 hours. […] In high dose PK and toxicology studies with I-57 the exposures in mouse, rat and monkey increased with dose.

[2] = In vivo non-clinical PK, monkey; parameters: species or system cynomolgus monkey
Description: as §1

plasma protein = experiment: Plasma protein binding in vitro, human; format: in vitro ADME
Source text: (§2) The binding to plasma protein of I-57 in vitro was moderate in all species, with an observed difference between rodents (73% in mouse, 76% in rat) and non-rodents (52% in dog and monkey, 54% in human). Blood-to-plasma ratios were in the range of 0.7-1.8 (human 1.1-1.3). […] Based on results with non-radiolabeled I-57 in the dog, a significant amount of unchanged I-57 was renally eliminated (˜20% of dose).

IKZF4 = target: T1, IKZF4 (Homo sapiens, UniProt Q96SW2+Q9H2S9); experiment: IKZF4 degradation in vitro (FIG. 1); format: cell-based; conditions: relative to IKZF2
T1 construct: prolabel (ProLabel enzyme-fragment tag); expressed in transfected cells; host or cells: HEK293T
T1 sequence (Q9H2S9 whole entry, the tested form may be a part): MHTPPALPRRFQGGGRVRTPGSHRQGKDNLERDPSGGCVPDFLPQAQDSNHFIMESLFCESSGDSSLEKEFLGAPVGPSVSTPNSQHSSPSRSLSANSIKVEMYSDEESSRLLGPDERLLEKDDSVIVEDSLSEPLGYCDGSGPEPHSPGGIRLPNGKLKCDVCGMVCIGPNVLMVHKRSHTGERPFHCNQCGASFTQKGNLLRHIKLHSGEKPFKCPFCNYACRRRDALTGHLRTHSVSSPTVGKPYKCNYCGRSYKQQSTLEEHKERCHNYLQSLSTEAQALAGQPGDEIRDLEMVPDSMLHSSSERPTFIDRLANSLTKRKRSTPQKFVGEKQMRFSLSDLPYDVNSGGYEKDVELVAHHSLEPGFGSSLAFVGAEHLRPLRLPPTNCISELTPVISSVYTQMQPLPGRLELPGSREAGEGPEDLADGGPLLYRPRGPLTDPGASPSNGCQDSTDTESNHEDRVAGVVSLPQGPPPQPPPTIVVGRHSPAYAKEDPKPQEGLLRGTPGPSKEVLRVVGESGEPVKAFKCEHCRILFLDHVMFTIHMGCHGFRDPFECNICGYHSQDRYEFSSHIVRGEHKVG
T1 sequence (Q96SW2 whole entry, the tested form may be a part): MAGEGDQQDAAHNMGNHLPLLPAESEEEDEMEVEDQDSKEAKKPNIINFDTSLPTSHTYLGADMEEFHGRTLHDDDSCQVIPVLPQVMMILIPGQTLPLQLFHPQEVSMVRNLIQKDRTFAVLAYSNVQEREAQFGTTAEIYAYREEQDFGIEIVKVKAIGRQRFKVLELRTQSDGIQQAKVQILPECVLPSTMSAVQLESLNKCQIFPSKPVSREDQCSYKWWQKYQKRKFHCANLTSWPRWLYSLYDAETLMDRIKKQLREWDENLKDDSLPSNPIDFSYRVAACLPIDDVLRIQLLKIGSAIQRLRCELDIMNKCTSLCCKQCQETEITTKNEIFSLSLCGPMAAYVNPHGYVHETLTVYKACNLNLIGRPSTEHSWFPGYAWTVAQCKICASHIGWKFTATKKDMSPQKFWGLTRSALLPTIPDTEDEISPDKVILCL
T1 sequence (Q16531 whole entry partner, the tested form may be a part): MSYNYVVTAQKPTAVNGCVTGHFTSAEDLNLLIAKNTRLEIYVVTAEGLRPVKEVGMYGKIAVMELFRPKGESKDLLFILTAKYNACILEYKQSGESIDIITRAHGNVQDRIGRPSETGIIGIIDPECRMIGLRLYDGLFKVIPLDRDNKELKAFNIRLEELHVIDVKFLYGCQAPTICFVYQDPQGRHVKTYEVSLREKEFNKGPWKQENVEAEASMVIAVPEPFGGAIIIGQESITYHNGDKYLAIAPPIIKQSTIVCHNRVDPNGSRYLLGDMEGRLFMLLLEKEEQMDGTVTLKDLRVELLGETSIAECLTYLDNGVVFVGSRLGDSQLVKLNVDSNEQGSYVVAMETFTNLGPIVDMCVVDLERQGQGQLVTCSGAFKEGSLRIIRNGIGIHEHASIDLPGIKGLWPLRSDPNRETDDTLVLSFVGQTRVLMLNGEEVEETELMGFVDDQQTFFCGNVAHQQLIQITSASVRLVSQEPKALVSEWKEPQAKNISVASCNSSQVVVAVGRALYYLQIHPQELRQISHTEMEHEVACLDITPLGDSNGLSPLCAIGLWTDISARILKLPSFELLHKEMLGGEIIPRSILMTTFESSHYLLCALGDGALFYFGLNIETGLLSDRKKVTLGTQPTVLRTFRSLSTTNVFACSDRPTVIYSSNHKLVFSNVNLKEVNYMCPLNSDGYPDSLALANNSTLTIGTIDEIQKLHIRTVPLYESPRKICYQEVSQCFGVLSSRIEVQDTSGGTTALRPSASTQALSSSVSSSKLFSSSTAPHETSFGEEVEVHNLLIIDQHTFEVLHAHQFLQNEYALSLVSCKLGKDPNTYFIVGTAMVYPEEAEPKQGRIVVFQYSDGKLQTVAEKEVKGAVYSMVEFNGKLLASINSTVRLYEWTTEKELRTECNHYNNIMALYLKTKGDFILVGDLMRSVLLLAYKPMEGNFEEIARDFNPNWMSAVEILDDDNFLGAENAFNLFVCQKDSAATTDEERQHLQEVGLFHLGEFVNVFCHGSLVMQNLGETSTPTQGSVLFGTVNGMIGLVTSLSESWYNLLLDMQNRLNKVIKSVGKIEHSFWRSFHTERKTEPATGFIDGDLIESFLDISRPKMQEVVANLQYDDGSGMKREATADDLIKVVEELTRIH
Source text: (§3) Although the specific transcriptional targets of IKZF2 remain to be defined, IKZF2 binds to and represses transcription from the IL-2 promoter region (Baine 2013). […] Finally, an in vitro assay recapitulating hallmarks of T cell dysfunction/exhaustion, by sequential TCR stimulation of isolated primary human T cells, was used to test the hypothesis that […] would rescue the exhausted phenotype and enhance Teff cell activity. […] In addition to IKZF1, other known cereblon substrates including translation termination factor G1 to S phase transition 1 (GSPT1) are not degraded by I-57 (FIG. 1).

GSPT1 = target: T2, GSPT1 (Homo sapiens, UniProt P15170); experiment: GSPT1 degradation in vitro (FIG. 1); format: cell-based
T2 construct: prolabel (ProLabel enzyme-fragment tag); expressed in transfected cells; host or cells: HEK293T
T2 sequence (Q96SW2 whole entry partner, the tested form may be a part): as the sequence (Q96SW2 whole entry, the tested form may be a part) above
T2 sequence (Q16531 whole entry partner, the tested form may be a part): as the sequence (Q16531 whole entry partner, the tested form may be a part) above
T2 sequence (P15170 whole entry, the tested form may be a part): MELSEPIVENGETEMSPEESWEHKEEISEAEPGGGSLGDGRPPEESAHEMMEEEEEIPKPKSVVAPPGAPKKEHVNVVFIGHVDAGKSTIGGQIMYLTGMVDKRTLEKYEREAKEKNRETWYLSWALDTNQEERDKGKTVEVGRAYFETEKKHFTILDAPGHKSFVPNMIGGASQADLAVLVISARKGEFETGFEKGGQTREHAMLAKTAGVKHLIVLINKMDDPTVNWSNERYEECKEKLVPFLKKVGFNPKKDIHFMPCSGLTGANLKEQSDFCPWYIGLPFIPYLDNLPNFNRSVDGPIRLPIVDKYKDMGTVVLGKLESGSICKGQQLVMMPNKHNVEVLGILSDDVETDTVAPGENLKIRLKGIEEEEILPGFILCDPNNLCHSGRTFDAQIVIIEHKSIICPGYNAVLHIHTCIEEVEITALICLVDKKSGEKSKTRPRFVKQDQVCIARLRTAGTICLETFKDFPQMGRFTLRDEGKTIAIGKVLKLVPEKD
Source text: as §3

CYP3A = experiment: CYP inhibition: CYP3A; format: in vitro ADME; conditions: I-57 concentrations of up to 100 μM
CYP2D6 = CYP2D6 (Homo sapiens, UniProt P10635); experiment: CYP inhibition: CYP2D6; format: in vitro ADME
Chain of CYP2D6 (P10635 whole entry): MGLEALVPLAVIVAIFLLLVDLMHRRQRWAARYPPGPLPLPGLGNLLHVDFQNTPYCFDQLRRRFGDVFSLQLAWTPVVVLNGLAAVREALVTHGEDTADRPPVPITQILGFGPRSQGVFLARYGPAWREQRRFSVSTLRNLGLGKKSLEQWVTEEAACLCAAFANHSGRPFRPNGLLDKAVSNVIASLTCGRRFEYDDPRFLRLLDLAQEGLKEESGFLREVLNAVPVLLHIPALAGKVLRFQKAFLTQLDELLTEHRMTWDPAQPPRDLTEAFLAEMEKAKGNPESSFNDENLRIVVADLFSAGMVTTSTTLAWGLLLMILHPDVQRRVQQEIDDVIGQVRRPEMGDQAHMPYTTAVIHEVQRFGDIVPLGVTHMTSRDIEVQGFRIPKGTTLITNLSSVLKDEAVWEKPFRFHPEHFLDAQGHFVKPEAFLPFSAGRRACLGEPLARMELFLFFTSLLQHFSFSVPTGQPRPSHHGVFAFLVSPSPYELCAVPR

CYP2C9 = CYP2C9 (Homo sapiens, UniProt P11712); experiment: CYP inhibition: CYP2C9; format: in vitro ADME; conditions: I-57 concentrations of up to 100 μM
Chain of CYP2C9 (P11712 whole entry): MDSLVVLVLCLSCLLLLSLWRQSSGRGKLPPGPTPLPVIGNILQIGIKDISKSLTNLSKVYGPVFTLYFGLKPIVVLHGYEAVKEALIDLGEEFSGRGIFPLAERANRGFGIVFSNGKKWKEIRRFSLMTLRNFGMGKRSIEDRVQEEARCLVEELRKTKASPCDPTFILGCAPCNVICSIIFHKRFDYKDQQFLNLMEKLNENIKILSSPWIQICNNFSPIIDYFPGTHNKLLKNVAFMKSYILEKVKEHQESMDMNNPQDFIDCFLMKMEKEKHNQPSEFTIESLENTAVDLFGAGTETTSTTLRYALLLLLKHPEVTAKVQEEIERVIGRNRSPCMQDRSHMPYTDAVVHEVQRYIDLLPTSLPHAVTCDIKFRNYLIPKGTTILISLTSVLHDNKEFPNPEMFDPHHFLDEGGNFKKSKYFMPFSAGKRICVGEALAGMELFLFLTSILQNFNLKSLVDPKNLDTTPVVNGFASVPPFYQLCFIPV

hERG = hERG (Homo sapiens, UniProt Q12809); experiment: In vitro hERG inhibition; format: biochemical
Chain of hERG (Q12809 whole entry): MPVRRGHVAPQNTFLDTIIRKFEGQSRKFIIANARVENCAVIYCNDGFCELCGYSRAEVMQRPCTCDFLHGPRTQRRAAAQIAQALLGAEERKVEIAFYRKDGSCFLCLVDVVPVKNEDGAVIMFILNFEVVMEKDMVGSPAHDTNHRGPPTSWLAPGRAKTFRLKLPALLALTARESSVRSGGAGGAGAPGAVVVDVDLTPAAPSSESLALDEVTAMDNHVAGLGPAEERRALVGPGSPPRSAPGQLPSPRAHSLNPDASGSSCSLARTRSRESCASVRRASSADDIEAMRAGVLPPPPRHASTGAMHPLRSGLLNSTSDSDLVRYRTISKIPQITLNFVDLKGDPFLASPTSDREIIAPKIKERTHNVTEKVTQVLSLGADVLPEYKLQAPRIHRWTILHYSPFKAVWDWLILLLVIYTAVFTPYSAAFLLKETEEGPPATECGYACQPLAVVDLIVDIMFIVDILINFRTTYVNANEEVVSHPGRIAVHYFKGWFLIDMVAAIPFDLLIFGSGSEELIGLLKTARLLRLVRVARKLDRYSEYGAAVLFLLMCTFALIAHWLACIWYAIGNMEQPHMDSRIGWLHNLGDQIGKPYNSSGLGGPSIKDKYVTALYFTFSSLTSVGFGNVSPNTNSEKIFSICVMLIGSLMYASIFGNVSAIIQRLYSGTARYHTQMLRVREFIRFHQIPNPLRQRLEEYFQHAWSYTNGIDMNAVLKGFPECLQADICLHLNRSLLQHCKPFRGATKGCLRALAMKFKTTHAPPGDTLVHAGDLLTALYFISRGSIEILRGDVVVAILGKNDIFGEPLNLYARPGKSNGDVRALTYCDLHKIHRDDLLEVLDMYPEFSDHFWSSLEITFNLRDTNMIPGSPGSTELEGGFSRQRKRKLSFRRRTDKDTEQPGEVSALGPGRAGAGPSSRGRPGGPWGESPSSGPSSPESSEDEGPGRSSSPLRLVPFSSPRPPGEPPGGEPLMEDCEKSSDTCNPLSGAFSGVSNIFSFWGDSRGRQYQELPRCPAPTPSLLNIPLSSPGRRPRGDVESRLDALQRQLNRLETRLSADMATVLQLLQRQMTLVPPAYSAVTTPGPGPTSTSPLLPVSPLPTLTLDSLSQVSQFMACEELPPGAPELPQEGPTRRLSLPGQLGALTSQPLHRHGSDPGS
Description: The risk of possible QTc interval prolongation at the starting dose is therefore considered low. QT prolongation may become clinically significant during escalation but are not anticipated to be dose limiting until doses at or above 640 mg. Monitoring and other measures to mitigate potential risk of arrhythmia is addressed in Example 3 below.

IKZF2 [3] = experiment: Degradation of IKZF2 in primary PBMCs, cynomolgus monkey (FIG. 3); format: cell-based
Source text: FIG. 3. is a bar graph showing the degradation of IKZF2 in primary PBMCs obtained from rabbit, dog, pig, cynomolgus monkey and human, and in primary splenocytes of mouse and rat and treated with Compound I-57.

CYP1A2 = CYP1A2 (Homo sapiens, UniProt P05177); experiment: Time-dependent CYP inhibition: CYP1A2; format: in vitro ADME; conditions: I-57 concentrations of up to 100 μM
[4] = tested on: IL-2 mRNA and soluble protein in Jurkat cells; experiment: IL-2 expression in TCR-stimulated Jurkat cells; format: cell-based; conditions: Homo sapiens; Jurkat cells upon TCR stimulation
Source text: as §3

[5] = Toxicology in rats (5-day and 4-week GLP studies); format: in vivo
Source text: The non-clinical safety profile of I-57 was established in vitro, and in vivo in rats and cynomolgus monkeys in studies up to 4-weeks duration. Based on the outcome of these studies, QTc interval prolongation was identified as the principal safety signal for I-57. There were other toxicities such as diarrhea and vomiting in monkeys, and mortality, clinical signs and target organ toxicities in rats; however, these occurred at exposures far above those expected to result in clinical activity.
Clinical signs, decreases in body weight and food consumption, and clinical pathology changes reflecting inflammation, renal and liver injury, and stress were generally evident in the pre-terminal animals. Kidney toxicity was evident in rats at doses >100 mg/kg/day and was characterized by increased weight, hematuria, proteinuria, with or without increased blood urea and creatinine, degeneration, regeneration and inflammation at 300 mg/kg/day.

[6] = In vivo non-clinical PK, dog
Description: as §1, §2

[7] = tested on: isolated primary human T cells; experiment: In vitro T cell dysfunction/exhaustion assay (sequential TCR stimulation); format: cell-based
Source text: as §3

IKZF2 [8] = experiment: IKZF2 degradation in primary cynomolgus monkey PBMCs; format: cell-based; conditions: primary monkey PBMCs in vitro
Source text: as §3
I-57 mediated degradation of IKZF2 was assessed in primary PBMCs obtained from rabbit, dog, pig, cynomolgus monkey, and human, and in primary splenocytes of mouse and rat. […] Species-specificity due to species specific alteration CRBN primary structure have previously been described with other compounds known to interact with the CRBN ubiquitin ligase complex to elicit protein specific degradation (Krönke et al, 2015).

TMEM97 = target: T3, TMEM97 (Homo sapiens, UniProt Q5BJF2); experiment: Whole cell proteomic analysis in 293T cells: TMEM97; format: cell-based
T3 construct: endogenous in cells; host or cells: 293T
Description: Other potential degradation targets of I-57 were evaluated in 293T cells using whole cell proteomic analysis. […] Subsequent analyses have confirmed that FIZ1 is degraded by about 50% at a 10 μM concentration of I-57 ([I-57 Investigator's Brochure]). […] FIZ1 is expressed in the neural retina where it transcriptionally represses the differentiation of photoreceptors. FIZ1 is also expressed in non-ocular tissues with unknown function.

With O=C1CCC(N2Cc3cc(C4CCN(Cc5ccccc5)CC4)ccc3C2=O)C(=O)N1 (stereo not drawn) [Compound I-57, 3-(5-(1-benzylpiperidin-4-yl)-1-oxoisoindolin-2-yl)piperidine-2,6-dione] the “dose proportionality of AUC” value ([1]; between 3 mg/kg and 300 mg/kg) was “roughly dose proportional”, the bioavailability ([1]; blood, po) was 90% and the “dose proportionality of AUC” value ([2]; above 100 mg/kg) was “less than dose proportional”. The “dose proportionality of AUC” value ([2]; between 10 mg/kg and 100 mg/kg) was “slightly over-proportional”, the bioavailability ([2]; cynomolgus monkey, blood, po) was 89% and the “binding to plasma protein” value (plasma protein) was 54%. For the same compound, the “degradation of IKZF4” value (IKZF4) was “less potency than IKZF2”, the “degradation of GSPT1” value (GSPT1) was “not degraded” and the “inhibition of CYP3A” value (CYP3A) was “very little and no inhibition”. The IC50 (CYP2D6) was ~65 µM, the “inhibition of CYP2C9” value (CYP2C9) was “very little and no inhibition” and the IC50 (hERG) was 7.1 µM. The “degradation of IKZF2” value (IKZF2 [3]) was “degradation was observed”, the “time-dependent inhibition of CYP1A2” value (CYP1A2) was “no apparent time-dependent inhibition” and the AC50 [4] was ~4 nM and ~0.0017 µg/mL. For the same compound, the reversibility of findings ([5]; rat, in vivo) was “fully reversed or showed ongoing recovery”, the stomach findings ([5]; rat, in vivo, 300 mg/kg/day) was “mucosal hyperplasia, inflammation and degeneration in the stomach” and the urinary bladder findings ([5]; rat, in vivo, 300 mg/kg/day) was “Degenerative changes were present in the urinary bladder”. The “dose at which kidney toxicity was evident” value ([5]; rats) was > 100 mg/kg/day, the “dose at which mortality occurred” value ([5]; rats, females) was > 300 mg/kg/day and the “dose at which mortality occurred” value ([5]; rats, males) was 1000 mg/kg. The bioavailability ([6]; blood, po) was 91%, the “unchanged I-57 renally eliminated” value ([6]; non-radiolabeled I-57) was ~20 % of dose and the IKZF2 degradation [7] was “degraded IKZF2 in a dose-dependent manner”. The “interferon gamma production by IKZF2 positive cells” value [7] was “concomitant increase”, the “degradation of IKZF2” value (IKZF2 [8]) was “potent degradation; also recorded: Degradation was observed” and the “degradation of TMEM97” value (TMEM97) was “degraded”.
